Results published in article PMC9138991, “Effect of Trimethine Cyanine Dye- and Folate-Conjugation on the In Vitro Biological Activity of Proapoptotic Peptides” (Biomolecules, 2022).
Where a SMILES comes first, the peptide text is derived from it. Side-chain parts run from the residue outwards. [ ]: non-standard residue; d: D form. The star is where a group is joined. Pteroyl = Nc1nc2ncc(CNc3ccc(C(=O)*)cc3)nc2c(=O)[nH]1; Cha = N[C@@H](CC1CCCCC1)C(=O)O; dCha = N[C@H](CC1CCCCC1)C(=O)O

What was measured:
Assay type in all cases: cell-based, human
[1] = tested on: KB, MCF7, SK-OV-3, and HEK293 cells; experiment: Cell viability assay (CellTiter-Blue), statements over all tested cell lines; conditions: for Selectivity of cytotoxicity between cell lines, in words: folate receptor α-high KB and SK-OV-3 versus MCF7 and HEK293; for Potency (cytotoxicity) in the tested cell lines, in words: extra sum-of-squares F test
Protocol: (§1) SK-OV-3, MCF7, and HEK293 cells were seeded at a density of 2 × 10^4 cells per well in a Nunc™ MicroWell™ 96-well plate and grown at 37 °C in a 5% CO2 atmosphere in DMEM supplemented with 10% (v/v) FBS for 24 h. KB cells were seeded at a density of 7 × 10^3 cells per well in a 96-well plate and grown at 37 °C in a 5% CO2 atmosphere in folic acid-depleted RPMI-1640 medium supplemented with 10% (v/v) FBS for 24 h. Stock solutions of compounds 2–6 and 11–13 were obtained by dissolving the compounds in sterile deionized water. Compounds 1, and 7–10 were dissolved in pure DMSO. The stock solutions were diluted into the proper medium (according to the cell line tested) supplemented with 10% FBS to the appropriate concentration, and cells in each well were incubated with 100 µL of the solution. The solutions in each well were then adjusted to a concentration of 1% (v/v) DMSO. After 24 h at 37 °C, 20 µL of CellTiter-Blue™ was added to each well. The plate was incubated for another 4 h at 37 °C before analysis on a Perkin Elmer Victor X plate reader (excitation 531 nm; emission 595 nm). Each data point was calculated from a minimum of nine values resulting from three biological replicates (i.e., cells split from three different passages); each biological replicate is calculated from three technical replicates (i.e., cells split from the same passage). Value from media-only with CellTiter-Blue™ was set at 0% viability. This value was then subtracted from the values from cell-only (i.e., non-treated) wells with CellTiter-Blue™ in each biological replicate and set as 100% viability. For treatments of Cy3-containing compounds, blanks were generated with cell-free wells containing the compounds incubated for 24 h before addition of CellTiter-Blue™. The fluorescent reading for these wells was deducted from the treatment readings. Dose-response fitting curves were generated using Origin, version 2019b, OriginLab Corporation, Northampton, MA, USA (Figures S21–S24, Supplementary Materials).
(§2) Comparison of cytotoxicity fitting curves was achieved by applying the extra sum-of-squares F test, performed using GraphPad Prism version 9 for Windows, GraphPad Software, La Jolla, California, USA (https://www.graphpad.com/). […] Statistical analysis on the flow cytometry data was achieved by applying the unpaired two-tailed t-test test, performed using GraphPad Prism version 9 for Windows, GraphPad Software, La Jolla California USA, USA (https://www.graphpad.com/).
Cytotoxicity of 1–13 was evaluated using the CellTiter-Blue assay on KB, MCF7, SK-OV-3, and HEK293 cells. KB cells are derived from human cervical cancer, while SK-OV-3 cells are derived from human ovarian cancer. […] This feature is of particular relevance in anticancer applications, as it can be exploited for selective targeting and delivery. MCF7 is a cell line derived from human breast cancer with low levels of folate receptor α [27]. Therefore, it can serve as the negative control for folate receptor α mediated tumor-targeted drug delivery systems. HEK293 is a non-cancer cell line and was chosen to evaluate the specificity of the tested compounds toward cancer cells.

MCF7 cells = experiment: Cell viability assay (CellTiter-Blue), MCF7 cells; conditions: for EC50: MCF7 cells, 2 × 10^4 cells per well, DMEM + 10% FBS, 1% DMSO, 24 h at 37 °C, then CellTiter-Blue 4 h, three biological replicates fitted in Origin, standard error in brackets
Protocol: (§3) KB and MCF7 cells were kindly gifted by Prof. Arwyn T. Jones (Cardiff University), HEK293 cells were purchased from Public Health England, and SK-OV-3 cells were purchased from National Collection of Authenticated Cell Cultures (https://cell-bank.org.cn/). Cells were routinely tested for mycoplasma infection. KB and SK-OV-3 cells were maintained in T75 flasks at 37 °C in a 5% CO2 atmosphere in folic acid-depleted Roswell Park Memorial Institute (RPMI)-1640 medium supplemented with 10% (v/v) fetal bovine serum (FBS). MCF7 and HEK293 cells were maintained in T75 flasks at 37 °C in a 5% CO2 atmosphere in Dulbecco’s Modified Eagle’s medium (DMEM) supplemented with 10% (v/v) FBS. Cells were maintained at a sub-confluent monolayer and split at 80–85% confluency. For splitting, cells were washed with PBS, trypsinized in 1 mL of trypsin, and 200 µL of the 1000 µL trypsin cell suspension was re-suspended in 12 mL fresh DMEM containing 10% (v/v) FBS in a new T75 flask. KB and SK-OV-3 cells were used for biological experiments after being maintained for at least 10 days in folic acid-depleted RPMI-1640 medium.
as §1, §2
(§4) Cytotoxicity of 1–13 was evaluated using the CellTiter-Blue assay on KB, MCF7, SK-OV-3, and HEK293 cells. KB cells are derived from human cervical cancer, while SK-OV-3 cells are derived from human ovarian cancer. […] This feature is of particular relevance in anticancer applications, as it can be exploited for selective targeting and delivery. […]

HEK293 cells = experiment: Cell viability assay (CellTiter-Blue), HEK293 cells; conditions: 2 × 10^4 cells per well, DMEM + 10% FBS, 1% DMSO, 24 h at 37 °C, then CellTiter-Blue 4 h, three biological replicates fitted in Origin, standard error in brackets
Protocol: as §3, §1, §2, §4

KB cells = experiment: Cell viability assay (CellTiter-Blue), KB cells; conditions: 7 × 10^3 cells per well, folic acid-depleted RPMI-1640 + 10% FBS, 1% DMSO, 24 h at 37 °C, then CellTiter-Blue 4 h, three biological replicates fitted in Origin, standard error in brackets
Protocol: as §3, §1, §2, §4

SK-OV-3 cells = experiment: Cell viability assay (CellTiter-Blue), SK-OV-3 cells; conditions: 2 × 10^4 cells per well, medium + 10% FBS, 1% DMSO, 24 h at 37 °C, then CellTiter-Blue 4 h, three biological replicates fitted in Origin, standard error in brackets
Protocol: as §3, §1, §2, §4

[2] = tested on: mitochondria of MCF7 cells; experiment: Confocal microscopy, colocalisation with MitoTracker Green FM, MCF7 cells; conditions: 10 µM conjugate, 10 min at 37 °C
Protocol: (§5) SK-OV-3 and MCF7 were seeded at a density of 1 × 10^6 cells per well in glass-bottom culture dishes and grown at 37 °C in a 5% CO2 atmosphere in medium supplemented with 10% (v/v) FBS for 24 h. Cells were washed once with the RPMI-1640 medium supplemented with 10% (v/v) FBS before staining. Compounds 1, 5–10 were diluted into the RPMI-1640 medium supplemented with 10% (v/v) FBS to 10 μM and then added to the culture dishes, respectively. After 10-min incubation at 37 °C, cells were washed with RPMI-1640 medium supplemented with 10% (v/v) FBS. Cells were then treated with 50 nM MitoTracker Green FM and 10 μg/mL Hoechst33258 pre-formulated with RPMI-1640 medium supplemented with 10% (v/v) FBS and then incubated for another 10 min at 37 °C before analysis on ZEISS LSM 900 with Airyscan 2. The results were analyzed using Image J software (Figure 3 and Figures S4–S7 in Supplementary Materials).
(§6) Figure 3 Confocal microscopy images of SK-OV-3 and MCF7 cells treated with Cy3-containing conjugates. Cells were treated with 10 µM of the indicated conjugate for 10 min at 37 °C, washed, stained with 50 nM MitoTracker Green FM and 10 μg/mL Hoechst33258 for 10 min at 37 °C, washed, and imaged at 63X. Pearson’s correlation coefficients of MitoTracker Green FM and Cy3 fluorescence for compounds 1, 5, 6, 7, 8, 9, and 10 in SK-OV-3 and MCF cells are 0.75/0.64, 0.73/0.81, 0.91/0.61, 0.78/0.63, 0.85/0.69, 0.43/0.82, and 0.78/0.60, respectively. Excitation wavelengths for Hoechst33258, MitoTracker Green FM and Cy3 were set as 405, 488, and 561 nm, respectively. Scale bars denote 25 μm. Additional images, including the results of Hoechst33258 staining, are shown in Figure S4 (SK-OV-3 at 20X), Figure S5 (SK-OV-3 at 63X), Figure S6 (MCF7 at 20X) and Figure S7 (MCF7 at 63X), Supplementary Materials.

[3] = tested on: mitochondria of SK-OV-3 cells; experiment: Confocal microscopy, colocalisation with MitoTracker Green FM, SK-OV-3 cells; conditions: 10 µM conjugate, 10 min at 37 °C
Protocol: as §5, §6

[4] = KB, SK-OV-3, MCF7 and HEK293 cells, CellTiter-Blue

Row | SMILES | Selectivity of cytotoxicity between cell lines, in words [1] | EC50 (MCF7 cells) | EC50 (HEK293 cells) | EC50 (KB cells) | EC50 (SK-OV-3 cells) | Potency (cytotoxicity) in the tested cell lines, in words [1, 4] | EC50 in MCF7 cells, times higher than in the other tested cell lines (MCF7 cells; MCF7 versus KB, SK-OV-3 and HEK293) | EC50 ([1]; KB, SK-OV-3, MCF7 and HEK293 cells, CellTiter-Blue, 24 h) | Pearson's correlation coefficient of MitoTracker Green and Cy3 fluorescence ([2]; imaged at 20X) | Pearson's correlation coefficient of MitoTracker Green FM and Cy3 fluorescence ([2]; imaged at 63X) | Pearson's correlation coefficient of MitoTracker Green and Cy3 fluorescence ([3]; imaged at 20X) | Pearson's correlation coefficient of MitoTracker Green FM and Cy3 fluorescence ([3]; imaged at 63X)
1 | CC(=O)N[C@@H](CCCCNC(=O)[C@H](CCC(=O)O)NC(=O)c1ccc(NCc2cnc3nc(N)nc(O)c3n2)cc1)C(=O)N[C@@H](CCCCN)C(=O)N[C@@H](CC(C)C)C(=O)N[C@@H](C)C(=O)N[C@@H](CCCCN)C(=O)N[C@@H](CC(C)C)C(=O)N[C@@H](C)C(=O)N[C@@H](CCCCN)C(=O)N[C@@H](CCCCN)C(=O)N[C@@H](CC(C)C)C(=O)N[C@@H](C)C(=O)N[C@@H](CCCCN)C(=O)N[C@@H](CC(C)C)C(=O)N[C@@H](C)C(=O)N[C@@H](CCCCN)C(N)=O [Compound 11] | enhanced toxicity in KB but not in SK-OV-3 cells when compared to MCF7 and HEK293 cells | > 400 µM | > 400 µM | 242 µM | > 400 µM |  |  |  |  |  |  | 
2 | C[C@@H](NC(=O)[C@H](CC1CCCCC1)NC(=O)[C@@H](CCCCN)NC(=O)[C@@H](C)NC(=O)[C@@H](CC1CCCCC1)NC(=O)[C@H](N)CCCCN)C(=O)N[C@H](CCCCN)C(=O)N[C@H](CCCCN)C(=O)N[C@@H](CC1CCCCC1)C(=O)N[C@H](C)C(=O)N[C@H](CCCCN)C(=O)N[C@H](CC1CCCCC1)C(=O)N[C@H](C)C(=O)N[C@H](CCCCN)C(N)=O [Compound 4, reference compound] (HELM PEPTIDE1{[dK].[O=C([C@@H](CC1CCCCC1)N[*:1])[*:2]].[dA].[dK].[Cha].[dA].[dK].[dK].[Cha].[dA].[dK].[O=C([C@@H](CC1CCCCC1)N[*:1])[*:2]].[dA].[dK].[am]}$$$$V2.0) |  | 50.9 µM | 15.6 µM | 6.5 µM | 11.6 µM | good potency in all tested cell lines | 3-8 times |  |  |  |  | 
3 | CC(=O)N[C@@H](CCCCNC(=O)[C@H](CCC(=O)O)NC(=O)c1ccc(NCc2cnc3nc(N)nc(O)c3n2)cc1)C(=O)N[C@H](CCCCN)C(=O)N[C@H](CC1CCCCC1)C(=O)N[C@H](C)C(=O)N[C@H](CCCCN)C(=O)N[C@@H](CC1CCCCC1)C(=O)N[C@H](C)C(=O)N[C@H](CCCCN)C(=O)N[C@H](CCCCN)C(=O)N[C@@H](CC1CCCCC1)C(=O)N[C@H](C)C(=O)N[C@H](CCCCN)C(=O)N[C@H](CC1CCCCC1)C(=O)N[C@H](C)C(=O)N[C@H](CCCCN)C(N)=O [Compound 13] (Ac-K([Glu-Pteroyl])[dK][dCha][dA][dK][Cha][dA][dK][dK][Cha][dA][dK][dCha][dA][dK]-NH2) | significantly higher | 26.9 µM | 20.4 µM | 9.8 µM | 41.5 µM |  |  |  |  |  |  | 
4 | CC(C)C[C@H](NC(=O)[C@H](CCCCN)NC(=O)[C@H](C)NC(=O)[C@H](CC(C)C)NC(=O)[C@H](CCCCN)NC(=O)[C@H](CCCCN)NC(=O)[C@H](C)NC(=O)[C@H](CC(C)C)NC(=O)[C@H](CCCCN)NC(=O)[C@H](C)NC(=O)[C@H](CC(C)C)NC(=O)[C@@H](N)CCCCN)C(=O)N[C@@H](C)C(=O)N[C@@H](CCCCN)C(N)=O [Compound 2, reference compound] |  | > 400 µM | > 400 µM | > 400 µM | > 400 µM | least potent amongst the tested compounds |  | > 300 µM |  |  |  | 
5 | CC(C)C[C@@H](NC(=O)[C@@H](CCCCN)NC(=O)[C@H](CCCCNC(=O)[C@H](CCC(=O)O)NC(=O)c1ccc(NCc2cnc3nc(N)nc(O)c3n2)cc1)NC(=O)CCCCC[N+]1=C(/C=C/C=C2\N(C)c3ccccc3C2(C)C)C(C)(C)c2ccccc21)C(=O)N[C@H](C)C(=O)N[C@H](CCCCN)C(=O)N[C@H](CC(C)C)C(=O)N[C@H](C)C(=O)N[C@H](CCCCN)C(=O)N[C@H](CCCCN)C(=O)N[C@H](CC(C)C)C(=O)N[C@H](C)C(=O)N[C@H](CCCCN)C(=O)N[C@H](CC(C)C)C(=O)N[C@H](C)C(=O)N[C@H](CCCCN)C(N)=O [Compound 9] |  | 13.2 µM | 6.9 µM | 22.4 µM | 8 µM |  |  |  | 0.61 | 0.82 | 0.52 | 0.43
